Measured values from paper PMC7714403 (JCI Insight, 2020).
Where two headings read alike, the source gives them in different places.

Tests used:
Type in all cases: cell-based
ARAF = ARAF (Homo sapiens, UniProt P10398); assay: KiNativ, MOLM13 live cells; settings: MOLM-13; 100 nM, 2 hours; Lys2; read-out: Inhibition vs DMSO
Protocol: (§1) Samples were analyzed by KiNativ in situ kinase profiling by ActivX Biosciences.

ATR = ATR (Homo sapiens, UniProt Q13535); assay: KiNativ, MOLM13 live cells; settings: MOLM-13; 100 nM, 2 hours; ATP; read-out: Inhibition vs DMSO
Protocol: as §1

CDK9 = CDK9 (Homo sapiens, UniProt P50750); assay: KiNativ, MOLM13 live cells; settings: MOLM-13; 100 nM, 2 hours; ATP Loop; read-out: Inhibition vs DMSO
Protocol: as §1

JAK1 domain1 = target: T1, JAK1 domain1 (Homo sapiens, UniProt P23458); assay: KiNativ, MOLM13 live cells; settings: 100 nM, 2 hours; Activation Loop
T1 construct: JAK1 domain1
Protocol: as §1

LATS2 = target: T2, LATS2 (Homo sapiens, UniProt Q9NRM7); assay: KiNativ, MOLM13 live cells; settings: 100 nM, 2 hours
T2 sequence (Q9NRM7 1-1088): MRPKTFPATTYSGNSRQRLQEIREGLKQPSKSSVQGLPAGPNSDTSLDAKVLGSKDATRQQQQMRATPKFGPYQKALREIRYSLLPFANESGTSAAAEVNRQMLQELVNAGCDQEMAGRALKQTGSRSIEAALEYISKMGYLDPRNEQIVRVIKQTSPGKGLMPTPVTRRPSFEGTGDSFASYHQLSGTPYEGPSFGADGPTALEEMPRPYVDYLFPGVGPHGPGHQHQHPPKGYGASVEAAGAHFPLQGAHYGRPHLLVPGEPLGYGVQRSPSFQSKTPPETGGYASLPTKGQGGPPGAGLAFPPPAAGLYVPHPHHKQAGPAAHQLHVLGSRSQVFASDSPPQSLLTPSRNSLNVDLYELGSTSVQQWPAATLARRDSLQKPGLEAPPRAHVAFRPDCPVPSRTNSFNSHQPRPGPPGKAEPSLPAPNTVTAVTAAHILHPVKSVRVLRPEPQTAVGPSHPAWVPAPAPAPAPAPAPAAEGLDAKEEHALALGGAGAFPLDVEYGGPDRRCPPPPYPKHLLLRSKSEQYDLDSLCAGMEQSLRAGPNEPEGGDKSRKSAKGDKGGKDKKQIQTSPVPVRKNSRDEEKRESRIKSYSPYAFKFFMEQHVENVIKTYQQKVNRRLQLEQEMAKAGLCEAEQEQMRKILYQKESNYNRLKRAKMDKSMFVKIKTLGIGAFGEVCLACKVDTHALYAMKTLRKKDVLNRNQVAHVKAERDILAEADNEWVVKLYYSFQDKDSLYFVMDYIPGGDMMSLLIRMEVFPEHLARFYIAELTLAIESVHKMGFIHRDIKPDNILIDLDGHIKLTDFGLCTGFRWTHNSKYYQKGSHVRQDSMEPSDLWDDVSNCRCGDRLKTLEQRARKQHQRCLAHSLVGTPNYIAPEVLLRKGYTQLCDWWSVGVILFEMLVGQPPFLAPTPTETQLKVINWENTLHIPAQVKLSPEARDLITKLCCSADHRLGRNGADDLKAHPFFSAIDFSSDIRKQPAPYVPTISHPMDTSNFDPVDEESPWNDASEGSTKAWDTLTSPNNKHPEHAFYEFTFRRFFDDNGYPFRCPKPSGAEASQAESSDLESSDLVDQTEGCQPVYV
Protocol: as §1

MLK3 = MLK3 (Homo sapiens, UniProt Q16584); assay: KiNativ, MOLM13 live cells; settings: 100 nM, 2 hours; Lys2
Protocol: as §1

MSK1 domain1 = target: T3, MSK1 domain1 (Homo sapiens, UniProt O75582); assay: KiNativ, MOLM13 live cells; settings: MOLM-13; 100 nM, 2 hours; Lys2; read-out: Inhibition vs DMSO
T3 construct: MSK1 domain1
Protocol: as §1

NEK3 = NEK3 (Homo sapiens, UniProt P51956); assay: KiNativ, MOLM13 live cells; settings: MOLM-13; 100 nM, 2 hours; Activation Loop; read-out: Inhibition vs DMSO
Protocol: as §1

NLK = NLK (Homo sapiens, UniProt Q9UBE8); assay: KiNativ, MOLM13 live cells; settings: MOLM-13; 100 nM, 2 hours; Lys2; read-out: Inhibition vs DMSO
Protocol: as §1

PIK3C3 = PIK3C3 (Homo sapiens, UniProt Q8NEB9); assay: KiNativ, MOLM13 live cells; settings: MOLM-13, 2 h, 100 nM, ATP, read-out: Inhibition vs DMSO
Protocol: as §1

DLK = DLK (Homo sapiens, UniProt Q12852); assay: KiNativ, OCI cells live cell; settings: labeling site Lys2, peptide DLKSPNMLITYDDVVK
MAP2K7 = MAP2K7 (Homo sapiens, UniProt O14733); assay: KiNativ, OCI cells live cell; settings: labeling site Lys2, peptide DVKPSNILLDER
TLK1 = target: T4, TLK1 (Homo sapiens, UniProt Q9UKI8); assay: KiNativ, OCI cells live cell; settings: 2 h
T4 sequence (Q9UKI8 1-766): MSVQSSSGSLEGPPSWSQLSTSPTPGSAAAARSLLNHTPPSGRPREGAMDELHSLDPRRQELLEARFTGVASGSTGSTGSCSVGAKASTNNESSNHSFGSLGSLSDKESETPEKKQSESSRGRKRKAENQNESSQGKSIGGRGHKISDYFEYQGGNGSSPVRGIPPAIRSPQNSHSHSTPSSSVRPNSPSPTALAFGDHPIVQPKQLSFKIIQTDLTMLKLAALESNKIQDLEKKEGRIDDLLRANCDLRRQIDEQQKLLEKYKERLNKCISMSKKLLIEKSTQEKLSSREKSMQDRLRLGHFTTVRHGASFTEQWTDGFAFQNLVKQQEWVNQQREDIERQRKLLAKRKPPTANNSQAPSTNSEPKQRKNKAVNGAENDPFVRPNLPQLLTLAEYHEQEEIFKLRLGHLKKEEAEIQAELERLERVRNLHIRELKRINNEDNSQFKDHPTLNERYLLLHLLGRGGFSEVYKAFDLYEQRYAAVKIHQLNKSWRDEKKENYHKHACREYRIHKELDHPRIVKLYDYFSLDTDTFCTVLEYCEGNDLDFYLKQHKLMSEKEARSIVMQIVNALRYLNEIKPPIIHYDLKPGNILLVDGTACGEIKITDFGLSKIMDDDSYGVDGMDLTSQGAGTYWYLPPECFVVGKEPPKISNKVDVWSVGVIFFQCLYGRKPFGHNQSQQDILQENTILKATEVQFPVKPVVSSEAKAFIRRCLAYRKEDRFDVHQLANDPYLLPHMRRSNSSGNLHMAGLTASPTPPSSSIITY

Sequence of PIK3C3 (Q8NEB9 whole entry): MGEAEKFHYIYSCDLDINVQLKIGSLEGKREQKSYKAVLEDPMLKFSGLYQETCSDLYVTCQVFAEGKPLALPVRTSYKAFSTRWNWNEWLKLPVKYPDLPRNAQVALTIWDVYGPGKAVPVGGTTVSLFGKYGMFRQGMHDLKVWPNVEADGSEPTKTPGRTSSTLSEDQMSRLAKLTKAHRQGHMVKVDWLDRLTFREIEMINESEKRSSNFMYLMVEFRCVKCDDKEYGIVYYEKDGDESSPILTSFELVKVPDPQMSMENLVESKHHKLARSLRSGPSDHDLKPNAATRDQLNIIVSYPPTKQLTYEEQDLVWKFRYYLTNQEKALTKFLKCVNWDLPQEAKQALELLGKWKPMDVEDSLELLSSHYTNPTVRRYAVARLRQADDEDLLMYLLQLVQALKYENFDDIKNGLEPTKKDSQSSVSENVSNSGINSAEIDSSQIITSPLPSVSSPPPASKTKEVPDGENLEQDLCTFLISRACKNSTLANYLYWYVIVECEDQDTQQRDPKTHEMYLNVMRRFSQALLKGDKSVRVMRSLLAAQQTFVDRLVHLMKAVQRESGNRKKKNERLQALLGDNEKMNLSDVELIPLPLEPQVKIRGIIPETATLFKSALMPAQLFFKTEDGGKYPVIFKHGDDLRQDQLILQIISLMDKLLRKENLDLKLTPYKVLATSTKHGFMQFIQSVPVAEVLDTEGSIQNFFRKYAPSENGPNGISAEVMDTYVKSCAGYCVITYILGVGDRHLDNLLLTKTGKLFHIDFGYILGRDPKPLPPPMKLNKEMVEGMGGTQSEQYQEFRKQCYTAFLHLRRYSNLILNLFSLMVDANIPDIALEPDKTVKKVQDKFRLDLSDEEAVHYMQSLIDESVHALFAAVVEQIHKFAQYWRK
Sequence of DLK (Q12852 whole entry): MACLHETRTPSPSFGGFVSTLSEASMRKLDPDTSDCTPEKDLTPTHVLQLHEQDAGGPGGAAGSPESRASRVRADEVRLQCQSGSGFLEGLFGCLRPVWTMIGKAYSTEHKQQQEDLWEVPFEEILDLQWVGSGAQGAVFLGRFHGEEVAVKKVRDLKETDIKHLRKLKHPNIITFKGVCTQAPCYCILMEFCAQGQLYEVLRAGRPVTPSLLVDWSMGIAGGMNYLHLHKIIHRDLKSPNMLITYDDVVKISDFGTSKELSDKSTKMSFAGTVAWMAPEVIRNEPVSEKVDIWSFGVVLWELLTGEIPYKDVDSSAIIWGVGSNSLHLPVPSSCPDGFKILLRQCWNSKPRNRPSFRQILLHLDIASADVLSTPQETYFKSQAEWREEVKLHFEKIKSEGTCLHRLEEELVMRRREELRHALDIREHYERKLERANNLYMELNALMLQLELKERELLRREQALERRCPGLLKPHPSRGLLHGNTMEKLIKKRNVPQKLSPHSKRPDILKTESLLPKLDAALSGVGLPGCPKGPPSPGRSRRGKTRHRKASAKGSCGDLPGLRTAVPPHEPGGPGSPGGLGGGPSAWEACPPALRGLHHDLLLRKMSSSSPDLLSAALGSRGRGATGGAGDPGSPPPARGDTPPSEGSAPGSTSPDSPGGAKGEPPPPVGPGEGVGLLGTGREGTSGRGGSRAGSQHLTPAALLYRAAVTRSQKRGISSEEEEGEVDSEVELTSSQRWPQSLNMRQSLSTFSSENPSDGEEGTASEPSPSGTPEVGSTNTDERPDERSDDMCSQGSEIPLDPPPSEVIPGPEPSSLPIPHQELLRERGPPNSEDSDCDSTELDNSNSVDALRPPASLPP
Sequence of NEK3 (P51956 whole entry): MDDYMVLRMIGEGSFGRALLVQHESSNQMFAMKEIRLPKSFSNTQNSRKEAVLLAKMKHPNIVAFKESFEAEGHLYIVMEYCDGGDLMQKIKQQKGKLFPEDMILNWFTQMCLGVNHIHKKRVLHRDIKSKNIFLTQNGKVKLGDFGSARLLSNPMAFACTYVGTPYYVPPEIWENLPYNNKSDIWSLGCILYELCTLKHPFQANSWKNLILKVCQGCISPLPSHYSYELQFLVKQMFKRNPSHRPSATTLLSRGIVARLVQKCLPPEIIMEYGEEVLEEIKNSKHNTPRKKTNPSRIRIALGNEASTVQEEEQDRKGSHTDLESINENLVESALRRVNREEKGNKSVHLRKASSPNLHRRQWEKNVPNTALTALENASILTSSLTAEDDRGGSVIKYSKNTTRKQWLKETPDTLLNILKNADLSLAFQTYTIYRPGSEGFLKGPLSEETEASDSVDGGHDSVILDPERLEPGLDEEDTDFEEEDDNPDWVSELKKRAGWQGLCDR
Sequence of CDK9 (P50750 whole entry): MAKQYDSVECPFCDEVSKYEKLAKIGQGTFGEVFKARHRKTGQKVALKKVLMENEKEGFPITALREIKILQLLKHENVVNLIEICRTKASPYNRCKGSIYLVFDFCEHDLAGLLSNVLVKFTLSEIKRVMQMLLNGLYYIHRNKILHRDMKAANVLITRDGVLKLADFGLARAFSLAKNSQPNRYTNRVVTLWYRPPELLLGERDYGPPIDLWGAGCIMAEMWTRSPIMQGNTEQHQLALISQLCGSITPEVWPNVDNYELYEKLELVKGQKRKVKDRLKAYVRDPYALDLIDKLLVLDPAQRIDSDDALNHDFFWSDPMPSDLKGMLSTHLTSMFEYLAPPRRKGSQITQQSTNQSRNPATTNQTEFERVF
Sequence of CDK9 (O60563 whole entry partner): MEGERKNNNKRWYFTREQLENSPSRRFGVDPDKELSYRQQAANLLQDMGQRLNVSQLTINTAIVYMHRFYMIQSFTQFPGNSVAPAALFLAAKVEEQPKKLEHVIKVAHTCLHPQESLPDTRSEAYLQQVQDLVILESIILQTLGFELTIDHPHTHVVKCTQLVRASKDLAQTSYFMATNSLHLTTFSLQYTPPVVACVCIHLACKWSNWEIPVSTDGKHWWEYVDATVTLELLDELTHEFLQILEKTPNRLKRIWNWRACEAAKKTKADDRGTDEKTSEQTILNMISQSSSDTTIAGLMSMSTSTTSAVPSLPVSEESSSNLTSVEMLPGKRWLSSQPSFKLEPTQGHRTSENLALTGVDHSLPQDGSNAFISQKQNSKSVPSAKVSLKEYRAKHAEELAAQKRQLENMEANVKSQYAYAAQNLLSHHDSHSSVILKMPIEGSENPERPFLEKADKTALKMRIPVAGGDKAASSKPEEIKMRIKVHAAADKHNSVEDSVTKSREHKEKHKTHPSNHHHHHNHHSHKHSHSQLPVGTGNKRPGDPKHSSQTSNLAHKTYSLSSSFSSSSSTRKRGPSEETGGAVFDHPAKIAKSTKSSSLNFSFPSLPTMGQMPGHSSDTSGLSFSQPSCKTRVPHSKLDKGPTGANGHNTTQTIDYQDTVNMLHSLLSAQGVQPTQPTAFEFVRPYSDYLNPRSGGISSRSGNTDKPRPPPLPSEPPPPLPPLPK
T1 sequence (P23458 whole entry, the tested form may be a part): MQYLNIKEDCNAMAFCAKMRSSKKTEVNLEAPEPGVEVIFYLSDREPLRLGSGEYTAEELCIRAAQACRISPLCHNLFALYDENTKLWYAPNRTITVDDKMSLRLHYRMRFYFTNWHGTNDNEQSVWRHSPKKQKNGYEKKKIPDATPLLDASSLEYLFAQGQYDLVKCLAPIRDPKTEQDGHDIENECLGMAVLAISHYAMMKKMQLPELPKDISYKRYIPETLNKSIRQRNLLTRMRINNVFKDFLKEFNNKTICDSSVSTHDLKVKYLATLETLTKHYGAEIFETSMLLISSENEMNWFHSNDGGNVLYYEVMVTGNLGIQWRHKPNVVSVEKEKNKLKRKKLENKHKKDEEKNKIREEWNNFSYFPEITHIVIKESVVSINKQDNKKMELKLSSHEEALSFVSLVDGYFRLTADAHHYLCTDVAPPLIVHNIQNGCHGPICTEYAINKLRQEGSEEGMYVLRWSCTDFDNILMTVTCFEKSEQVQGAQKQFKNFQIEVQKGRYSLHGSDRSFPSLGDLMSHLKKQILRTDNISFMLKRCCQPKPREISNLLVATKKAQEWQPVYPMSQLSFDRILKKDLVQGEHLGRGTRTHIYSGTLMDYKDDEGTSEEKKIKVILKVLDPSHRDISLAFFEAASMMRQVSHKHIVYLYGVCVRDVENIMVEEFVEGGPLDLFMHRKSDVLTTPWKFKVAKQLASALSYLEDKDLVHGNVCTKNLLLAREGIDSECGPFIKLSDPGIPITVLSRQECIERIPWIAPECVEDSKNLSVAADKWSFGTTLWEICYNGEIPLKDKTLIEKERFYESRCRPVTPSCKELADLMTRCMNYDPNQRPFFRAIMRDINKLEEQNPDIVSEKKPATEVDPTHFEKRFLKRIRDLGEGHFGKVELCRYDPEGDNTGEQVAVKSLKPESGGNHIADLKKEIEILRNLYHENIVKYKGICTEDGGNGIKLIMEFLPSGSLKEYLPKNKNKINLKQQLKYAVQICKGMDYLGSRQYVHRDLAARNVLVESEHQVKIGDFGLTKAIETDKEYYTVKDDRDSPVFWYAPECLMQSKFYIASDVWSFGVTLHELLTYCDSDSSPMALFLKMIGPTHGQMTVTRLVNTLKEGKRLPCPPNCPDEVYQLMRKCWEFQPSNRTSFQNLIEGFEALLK
Sequence of NLK (Q9UBE8 whole entry): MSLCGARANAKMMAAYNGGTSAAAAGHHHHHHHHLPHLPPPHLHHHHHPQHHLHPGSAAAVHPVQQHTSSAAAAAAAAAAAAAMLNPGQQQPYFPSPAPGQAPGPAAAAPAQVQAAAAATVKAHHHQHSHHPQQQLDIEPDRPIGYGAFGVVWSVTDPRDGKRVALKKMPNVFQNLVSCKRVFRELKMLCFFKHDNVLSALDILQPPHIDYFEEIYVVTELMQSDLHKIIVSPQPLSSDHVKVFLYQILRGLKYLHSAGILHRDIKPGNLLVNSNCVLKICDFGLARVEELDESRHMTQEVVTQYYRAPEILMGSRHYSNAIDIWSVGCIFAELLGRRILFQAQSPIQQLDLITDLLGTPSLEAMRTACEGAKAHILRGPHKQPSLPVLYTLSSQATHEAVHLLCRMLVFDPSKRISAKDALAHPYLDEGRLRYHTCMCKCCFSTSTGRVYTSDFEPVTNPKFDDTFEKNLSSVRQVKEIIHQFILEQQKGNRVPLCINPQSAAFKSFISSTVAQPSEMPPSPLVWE

CN1CCN(Cc2ccc(Nc3ncc(Cl)c(Nc4ccccc4S(=O)(=O)N(C)C)n3)cc2)CC1 [TP-0903]
inhibition at 0.1 µM (ARAF): -2.9% | inhibition at 0.1 µM (ATR): 7.6% | inhibition at 0.1 µM (CDK9): -34.4% | Inhibition vs DMSO (JAK1 domain1): 82.7% | Inhibition vs DMSO (LATS2; Lys1): 7.9% | Inhibition vs DMSO (LATS2; Lys2): -14.6% | Inhibition vs DMSO (MLK3): 20.5% | inhibition at 0.1 µM (MSK1 domain1): -10.3% | inhibition at 0.1 µM (NEK3): 14.6% | inhibition at 0.1 µM (NLK): -30.4% | inhibition at 0.1 µM (PIK3C3; TEDGGKYPVIFKHGDDLR): -23.9% | inhibition at 0.1 µM (PIK3C3; TEDGGKYPVIFKHGDDLRQDQLILQIISLMDK): 2.6% | Inhibition (DLK): 91.0% | Inhibition (MAP2K7): -6.6% | inhibition at 0.1 µM (TLK1; labeling site Lys1, peptide YAAVKIHQLNK): -15.2% | inhibition at 0.1 µM (TLK1; labeling site Lys2, peptide YLNEIKPPIIHYDLKPGNILLVDGTACGEIK): -2.5%
